Experimental data from patent publication US20260117184A1, “SYSTEM AND METHOD TO DIRECT THE DIFFERENTIATION OF PLURIPOTENT STEM CELL-DERIVED ODONTOBLASTS” (UNIVERSITY OF WASHINGTON, priority 2022, published 2026).

System: hiPSC derived odontoblast cells (iOB)
Assay: qPCR of odontoblast markers (Example 2)
Assay type: cell-based, human
Details: iOB bFGF (100 ng/mL, 14 days) compared to conventional odontoblast differentiation method (OB)
Procedure: This project applies the DPSC derived to odontoblast protocol previously described by the lab (30), modified for hiPSC and to reflect the full signaling pathway activities as detected by the sci-RNA-seq analysis (FIG. 11A; FIGS. 15B and 15C). […] Odontogenic medium was supplemented with 50 ng/mL BMP4 (Stemcell Technologies 78211) for 7 days followed by 25 ng/mL BMP4 (Stemcell Technologies 78211) and 400 nM SAG (Stemcell Technologies 73412) for 7 days (iOB); 100 ng/mL C6 (1,2) for 14 days (iOB C6); 100 ng/mL C6 for 7 days followed by 100 ng/mL mb7 (31,32) for 7 days (iOB C6 to mb7); or 100 ng/mL recombinant basic FGF (Gibco 13256-029) for 14 days (iOB bFGF). […]
To analyze gene expression, cells were dissociated and lysed with Trizol (Life Technology) with cell pellets stored at −80° C. RNA purification is performed via TURBO DNA-Free™ Kit (Invitrogen) or Aurum™ Total RNA Mini Kit (Bio-Rad), purity and concentration quantification via Nanodrop ND-1000 (Thermo Fisher Scientific). cDNA synthesis via iScript™ cDNA Synthesis Kit (Bio-Rad) or Applied Biosystems™ High-Capacity cDNA Reverse Transcription Kit (Thermo Fisher Scientific), and qPCR performed using oligonucleotide primers for neural crest and odontoblast markers (Table 3), SYBR Green reporter (Applied Biosystems) and 7300 Real-Time PCR System (Applied Biosystems). […]

bFGF: recombinant basic FGF (Gibco 13256-029)
DSPP and DMP1 expression: increased DSPP and DMP1 expression
